The target in the assay is T1, HMG-CoA reductase (Rattus norvegicus, UniProt P51639).
T1 construct: from tissue; inferred from the cited J. Med. Chem. 1985, 28, 347
T1 sequence (P51639 1-887): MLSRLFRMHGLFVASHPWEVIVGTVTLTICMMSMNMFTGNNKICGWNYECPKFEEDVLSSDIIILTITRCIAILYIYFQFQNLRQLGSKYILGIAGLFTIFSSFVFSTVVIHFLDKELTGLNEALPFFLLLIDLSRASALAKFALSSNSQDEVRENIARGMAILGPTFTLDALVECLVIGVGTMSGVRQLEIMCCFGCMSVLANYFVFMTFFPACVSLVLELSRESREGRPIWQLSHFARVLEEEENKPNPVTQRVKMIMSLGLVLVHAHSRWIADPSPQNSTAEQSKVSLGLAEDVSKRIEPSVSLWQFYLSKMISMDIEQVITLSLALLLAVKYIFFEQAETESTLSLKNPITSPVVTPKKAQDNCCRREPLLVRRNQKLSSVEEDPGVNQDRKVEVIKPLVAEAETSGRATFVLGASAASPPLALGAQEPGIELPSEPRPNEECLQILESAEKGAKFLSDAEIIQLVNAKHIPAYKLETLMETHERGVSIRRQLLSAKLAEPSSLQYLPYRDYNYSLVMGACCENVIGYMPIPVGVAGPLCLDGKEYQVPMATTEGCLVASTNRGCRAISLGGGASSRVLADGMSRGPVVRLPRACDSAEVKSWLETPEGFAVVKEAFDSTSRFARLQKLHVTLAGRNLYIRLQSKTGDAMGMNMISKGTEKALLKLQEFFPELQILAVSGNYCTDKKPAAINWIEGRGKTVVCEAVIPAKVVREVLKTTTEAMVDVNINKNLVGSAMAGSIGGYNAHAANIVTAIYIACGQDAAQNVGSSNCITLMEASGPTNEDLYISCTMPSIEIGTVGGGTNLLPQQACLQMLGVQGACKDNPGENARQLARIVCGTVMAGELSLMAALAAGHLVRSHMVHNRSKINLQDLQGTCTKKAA
Nature of the assay: intrinsic HMG-CoA reductase inhibition activity, in vitro protocol of J. Med. Chem., 1985, 28, page 347. The assay is classed as biochemical. Conditions: tested as the potassium salt. The protocol: The intrinsic HMG-CoA reductase inhibition activity of the claimed compounds is measured in the in vitro protocol described is J. Med. Chem., 1985, 28, page 347.

The source of these data is patent publication US4719229A, “Antihypercholesterolemic agents” (Merck & Co., Inc., priority 1987, dated 1988).

As to `C[C@@H]1CC[C@H]2C(=CC(O)[C@H](C)[C@@H]2CC[C@@H](O)C[C@@H](O)CC(=O)O)C1` (stereo partly shown), the IC50 (as a rule, the concentration that inhibits the measured activity by half) is 5.87 µM.
